Here are results for 3 compounds from patent US20240384250A1, “FIBROBLAST GROWTH FACTOR 23 MODULATING COMPOUNDS” (THE UAB RESEARCH FOUNDATION, priority 2021, published 2024).

The target in test [1] is T1, FGF23 (Homo sapiens, UniProt Q9GZV9).
T1 construct: purchased R&D Systems 2604FG025/CF (human) or 2629FG025/CF (mouse)
The test can be described thus: Plate-based binding assay, FGF23 coated, FLAG-sKL detected with anti-FLAG HRP. Particulars: 2 mM glucosamine or 12.5 ng/ml tunicamycin for 48 hours. Here is the method: (§1) Proteins were coated on 96-well plates (MaxiSorp; 439454, Thermo Fisher Scientific), and proteins were added to wells in 100 μl of enzyme-linked immunosorbent assay (ELISA) coating buffer (E107, Bethyl Laboratories) with a lid placed overtop and incubated at 4° C. overnight. Plates were washed 5× with 350 μl of assay buffer (50 mM Tris [pH 7.4], 200 mM NaCl, 0.01% Tween 20) on a 50 TS microplate washer (BioTek). Plates were blocked for 1 hour in 200 μl of assay buffer with 0.5% BSA. Plates were washed as before, and proteins were incubated on plates in 100 μl of assay buffer with 0.5% BSA. Proteins or heparin was incubated in orders described in the respective figure legends. Assays using FLAG-tag-based detection were incubated with anti-FLAG coupled to HRP at 1:20,000, and assays using Fc detection were incubated with anti-human Fc coupled to HRP at 1:10,000. […] Reactions were stopped with ELISA stop solution (E115, Bethyl Laboratories) and analyzed using the Synergy HI plate reader (BioTek) at 450 nm wavelength. […] As a control to remove background absorbance values, wells were coated with an equal amount of BSA to match the amount of protein coated in experimental wells and treated the same as experimental wells. […]

In test [2] the target is T2, FGF2 binding to FGFR1c (Homo sapiens, UniProt P11362).
T2 construct: a chimeric protein consisting of the FGFR1 ectodomain and the Fc region of a human IgG; purchased R&D Systems 233-FB/CF; 658FR050
T2 sequence (P11362 22-376 limits assumed): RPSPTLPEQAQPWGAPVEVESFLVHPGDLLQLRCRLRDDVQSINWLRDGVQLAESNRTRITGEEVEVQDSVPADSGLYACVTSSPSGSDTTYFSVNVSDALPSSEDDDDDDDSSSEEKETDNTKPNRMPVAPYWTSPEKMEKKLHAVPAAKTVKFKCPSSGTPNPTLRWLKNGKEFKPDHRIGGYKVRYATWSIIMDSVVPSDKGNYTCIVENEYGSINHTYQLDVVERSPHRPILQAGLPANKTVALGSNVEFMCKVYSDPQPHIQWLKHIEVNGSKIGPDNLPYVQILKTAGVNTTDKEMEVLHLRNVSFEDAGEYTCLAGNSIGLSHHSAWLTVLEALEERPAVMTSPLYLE
The test can be described thus: Plate-based binding of paracrine FGF to Fc-FGFR1c with heparin and/or sKL. Particulars: absence of sKL. Here is the method: Proteins were coated on 96-well plates (MaxiSorp; 439454, Thermo Fisher Scientific), and proteins were added to wells in 100 μl of enzyme-linked immunosorbent assay (ELISA) coating buffer (E107, Bethyl Laboratories) with a lid placed overtop and incubated at 4° C. overnight. Plates were washed 5× with 350 μl of assay buffer (50 mM Tris [pH 7.4], 200 mM NaCl, 0.01% Tween 20) on a 50 TS microplate washer (BioTek). Plates were blocked for 1 hour in 200 μl of assay buffer with 0.5% BSA. Plates were washed as before, and proteins were incubated on plates in 100 μl of assay buffer with 0.5% BSA. Proteins or heparin was incubated in orders described in the respective figure legends. Assays using FLAG-tag-based detection were incubated with anti-FLAG coupled to HRP at 1:20,000, and assays using Fc detection were incubated with anti-human Fc coupled to HRP at 1:10,000. Plates were washed as above, and 100 μl of 3,3′,5,5′-tetramethylbenzidine (TMB) substrate (E102, Bethyl Laboratories) was added for 15 to 20 minutes until positive wells developed a dark blue color. Reactions were stopped with ELISA stop solution (E115, Bethyl Laboratories) and analyzed using the Synergy HI plate reader (BioTek) at 450 nm wavelength. […] As a control to remove background absorbance values, wells were coated with an equal amount of BSA to match the amount of protein coated in experimental wells and treated the same as experimental wells. To study the effects of sKL on the binding between paracrine FGFs and FGFRs, plates were run as above except coated with paracrine FGFs. Fc-FGFR1 was preincubated with sKL or vehicle for 60 minutes, and then the combination was added to wells and the assay was run as before.

The test system of test [3] is phosphorylated ERK in HEK293T cells. Briefly: ERK phosphorylation in serum-starved HEK293 cells (Western blotting). Particulars: FGF 1.1 nM for 10 minutes, absence of sKL. The test is classed as cell-based, human. As to the method: The sample (20 μl) was loaded onto Mini-PROTEAN TGX Precast Gel 4-20% for experiments with <9 samples (4568094, Bio-Rad) or Criterion TGX Precast Gel 4-20% (5678094, Bio-Rad) for experiments with >9 samples. Gels were run in 1× Tris/Glycine/SDS buffer (1610732, Bio-Rad) at 150 V and stopped when the sample dye reached the end of the gel. Gels were removed and electrotransferred via a semi-dry cassette (1703940, Bio-Rad) in I× Tris/Glycine buffer (1610734, Bio-Rad) with 20% methanol. Gels were transferred onto polyvinylidene diflouride membranes (IPVH00010, Millipore) at 20 V for 1 hour. Membranes were then blocked in 5% dried milk with 0.5% Tween 20 diluted in Tris-buffered saline (TBST; pH 7.5) for 1 hour and probed with antibodies against specific antigens at 1:1000 in TBST with 5% dried milk. Blots were washed 3× for 5 minutes in TBST and probed with HRP-coupled secondary antibodies against specific species at 1:10,000 in TBST with 5% dried milk. Membranes were imaged on the SRX-101A X-ray film developer (Konica Minolta).
To determine the cellular activity of paracrine FGFs, the activation/phosphorylation of ERK in HEK293 cells after treatment was studied. […] Twenty microliters of samples was loaded onto 12% SDS-PAGE gels and analyzed using Western blotting for total and phosphorylated ERK.
(In general: In western blotting, separated proteins are transferred to a membrane and probed.)

For test [4], the target named is T3, FGFR1c (Homo sapiens, UniProt P11362).
T3 construct: Fc-coupled FGFR ectodomains were immobilized on protein A/G beads; purchased R&D Systems 658FR050
Briefly: Plate-based binding assay, FGFR1c coated, FLAG-sKL detected with anti-FLAG HRP. The conditions noted are these: 12.5 ng/ml tunicamycin for 48 hours. As to the method: as §1

T1 sequence (Q9GZV9 25-251, species assumed): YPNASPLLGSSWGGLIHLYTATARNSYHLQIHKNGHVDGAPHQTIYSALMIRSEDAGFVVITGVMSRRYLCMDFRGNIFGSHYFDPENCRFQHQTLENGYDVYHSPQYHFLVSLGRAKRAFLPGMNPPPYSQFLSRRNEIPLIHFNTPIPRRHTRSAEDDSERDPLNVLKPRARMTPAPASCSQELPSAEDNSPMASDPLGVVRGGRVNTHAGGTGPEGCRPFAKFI

Regarding `N[C@H]1C(O)O[C@H](CO)[C@@H](O)[C@@H]1O` (some centres unmarked) [Glucosmine, glucosamine, reference compound], the “FGF23 binding affinity of sKL in media of inhibitor-treated HEK293 cells” value in test [1] is on record as “had an effect”. For “FGF2: recombinant human FGF2 from R&D Systems”, the “FGF2 binding to FGFR1c” value in test [2] is “FGFR1c bound FGF2”. Besides, the “ERK phosphorylation induced by FGF” value in test [3] is listed as “induced ERK phosphorylation”. Turning to tunicamycin [reference compound], the “FGF23 binding affinity of sKL in media of inhibitor-treated HEK293 cells” value in test [1] is “much higher FGF23 binding affinity”. In test [4], the “FGFR1c binding of sKL in media of inhibitor-treated HEK293 cells” value is on record as “did not affect the FGFR1c binding”.
